Laboratory results taken from US8759535B2, “Substituted fused imidazole derivatives, pharmaceutical compositions, and methods of use thereof” (High Point Pharmaceuticals, LLC, priority 2010, dated 2014).

System: HMOX1
Assay: HMOX1 Protein Assay (immunostaining of HO-1 in NHLF cells, GE InCell 1000)
Format: cell-based
Settings: Homo sapiens, fold change above DMSO treated cells, 3 μM compound (asterisk), 16 h
Method in brief: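 NHLF cells seeded overnight in FGM-2, then exposed to compound or DMSO vehicle for 16 h, fixed, and immunostained for HO-1 with Hoechst nuclear counterstain; imaged on InCell 1000. Values are fold change over DMSO-treated cells, generally at 5 μM (0.8% DMSO), with asterisked entries at 3 μM.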

**Q.** How did the fold induction at 3 µM turn out when CNC(=O)CNC(=O)c1ccc2c(c1)nc(Nc1nc3ccc(C(F)(F)F)cc3s1)n2C [Example 381, 1-Methyl-2-(6-trifluoromethyl-benzothiazol-2-ylamino)-1H-benzoimidazole-5-carboxylic acid methylcarbamoylmethyl-amide] was run?
**A.** 28.2

**Q.** Which fold induction at 3 µM does the source give for C[C@@H](NC(=O)c1ccc2c(c1)nc(Nc1nc3ccc(Cl)cc3s1)n2C)C(=O)N(C)C [Example 467, 2-(6-Chloro-benzothiazol-2-ylamino)-1-methyl-1H-benzoimidazole-5-carboxylic acid ((R)-1-dimethylcarbamoyl-ethyl)-amide] here?
**A.** 22.3

**Q.** Which fold induction at 3 µM does the source give for Cn1c(Nc2nc3ccc(C(F)(F)F)cc3s2)nc2cc(C(=O)NCCN3CCOCC3)ccc21 [Example 341, 1-Methyl-2-(6-trifluoromethyl-benzothiazol-2-ylamino)-1H-benzoimidazole-5-carboxylic acid (2-morpholin-4-yl-ethyl)-amide] here?
**A.** 32.8

Same assay, conditions: Homo sapiens, fold change above DMSO treated cells, 5 μM compound, 16 h

**Q.** For CN1CC[C@@H](NC(=O)c2ccc3c(c2)nc(Nc2nc4ccc(Cl)cc4s2)n3C)C1 [Example 316, 2-(6-Chloro-benzothiazol-2-ylamino)-1-methyl-1H-benzoimidazole-5-carboxylic acid ((R)-1-methyl-pyrrolidin-3-yl)-amide], which fold induction at 5 µM is on record?
**A.** 18.1

**Q.** With CNC(=O)c1ccc2c(c1)nc(Nc1nc3cc(F)c(F)cc3s1)n2C [Example 86, 2-(5,6-Difluoro-benzothiazol-2-ylamino)-1-methyl-1H-benzoimidazole-5-carboxylic acid methylamide] as the compound, how does the fold induction at 5 µM read?
**A.** 9.7

**Q.** With CCOCCNC(=O)c1cnc2c(c1)nc(Nc1nc3ccc(OC(F)(F)F)cc3s1)n2C [Example 75, 3-Methyl-2-(6-trifluoromethoxy-benzothiazol-2-ylamino)-3H-imidazo[-4,5-b]pyridine-6-carboxylic acid (2-ethoxy-ethyl)-amide] as the compound, how does the fold induction at 5 µM read?
**A.** 29

**Q.** C[C@@H](O)CNC(=O)CNC(=O)c1ccc2c(c1)nc(Nc1nc3ccc(Cl)cc3s1)n2C [Example 382, 2-(6-Chloro-benzothiazol-2-ylamino)-1-methyl-1H-benzoimidazole-5-carboxylic acid [((R)-2-hydroxy-propylcarbamoyl)-methyl]-amide] was tested. Which fold induction at 5 µM did it give?
**A.** 20.6

**Q.** Which fold induction at 5 µM does the source give for Cn1c(Nc2nc3ccc(OC(F)(F)F)cc3s2)nc2cc(C(=O)NN3CCOCC3)ccc21 [Example 15, 1-Methyl-2-(6-trifluoromethoxy-benzothiazol-2-ylamino)-1H-benzoimidazole-5-carboxylic acid morpholin-4-ylamide] here?
**A.** 22.8

**Q.** Which fold induction at 5 µM does the source give for COC(=O)c1ccc2c(c1)nc(Nc1nc3ccc(OC(F)(F)F)cc3s1)n2C(C)C [Example 158, 1-Isopropyl-2-(6-trifluoromethoxy-benzothiazol-2-ylamino)-1H-benzoimidazole-5-carboxylic acid methyl ester] here?
**A.** 1.7

**Q.** Which fold induction at 5 µM does the source give for CN1CCN(C(=O)CCCNC(=O)c2ccc3c(c2)nc(Nc2nc4ccc(Cl)cc4s2)n3C)CC1 [Example 377, 2-(6-Chloro-benzothiazol-2-ylamino)-1-methyl-1H-benzoimidazole-5-carboxylic acid [4-(4-methyl-piperazin-1-yl)-4-oxo-butyl]-amide] here?
**A.** 20.3

**Q.** For CCOC(=O)C1(NC(=O)c2ccc3c(c2)nc(Nc2nc4ccc(OC(F)(F)F)cc4s2)n3C)CC1 [Example 144, 1-{[1-Methyl-2-(6-trifluoromethoxy-benzothiazol-2-ylamino)-1H-benzimidazole-5-carbonyl]-amino}-cyclopropanecarboxylic acid ethyl ester], which fold induction at 5 µM is on record?
**A.** 7.3

**Q.** CN(C)[C@H]1CCN(C(=O)CNC(=O)c2ccc3c(c2)nc(Nc2nc4ccc(OC(F)(F)F)cc4s2)n3C)C1 [Example 416, 1-Methyl-2-(6-trifluoromethoxy-benzothiazol-2-ylamino)-1H-benzoimidazole-5-carboxylic acid [2-((S)-3-dimethylamino-pyrrolidin-1-yl)-2-oxo-ethyl]-amide] was tested. Which fold induction at 5 µM did it give?
**A.** 96.6

**Q.** How did the fold induction at 5 µM turn out when COCCn1c(Nc2nc3ccc(OC(F)(F)F)cc3s2)nc2cc(C(=O)O)ccc21 [Example 166, 1-(2-Methoxy-ethyl)-2-(6-trifluoromethoxy-benzothiazol-2-ylamino)-1H-benzoimidazole-5-carboxylic acid] was run?
**A.** 22.4

**Q.** How did the fold induction at 5 µM turn out when Cn1c(Nc2nc3ccc(Cl)cc3s2)nc2cc(C(=O)NCCC#N)ccc21 [Example 213, 2-(6-Chloro-benzothiazol-2-ylamino)-1-methyl-1H-benzoimidazole-5-carboxylic acid (2-cyano-ethyl)-amide] was run?
**A.** 48.6

**Q.** For Cn1c(Nc2nc3ccc(OC(F)(F)F)cc3s2)nc2cc(C(=O)NC(C)(C)C(=O)O)ccc21 [Example 148, 2-Methyl-2-{[1-methyl-2-(6-trifluoromethoxy-benzothiazol-2-ylamino)-1H-benzimidazole-5-carbonyl]-amino}-propionic acid], which fold induction at 5 µM is on record?
**A.** 12

**Q.** For COC(=O)c1ccc2c(c1)nc(Nc1nc3ccc(C(F)(F)F)cc3s1)n2C [Example 23, 1-Methyl-2-(6-trifluoromethyl-benzothiazol-2-ylamino)-1H-benzoimidazole-5-carboxylic acid methyl ester], which fold induction at 5 µM is on record?
**A.** 4.11

**Q.** With CCOCCNC(=O)c1ccc2c(c1)nc(Nc1nc3ccc(Cl)cc3s1)n2C [Example 89, 2-(6-Chloro-benzothiazol-2-ylamino)-1-methyl-1H-benzoimidazole-5-carboxylic acid (2-ethoxy-ethyl)-amide] as the compound, how does the fold induction at 5 µM read?
**A.** 23.7

**Q.** CN(C)CCNC(=O)c1ccc2c(c1)nc(Nc1nc3ccc(OC(F)(F)F)cc3s1)n2C [Example 82, 1-Methyl-2-(6-trifluoromethoxy-benzothiazol-2-ylamino)-1H-benzoimidazole-5-carboxylic acid (2-dimethylamino-ethyl)-amide] was tested. Which fold induction at 5 µM did it give?
**A.** 17

**Q.** For CN(C)[C@H]1CCN(C(=O)CNC(=O)c2ccc3c(c2)nc(Nc2nc4ccc(Cl)cc4s2)n3C)C1 [Example 418, 2-(6-Chloro-benzothiazol-2-ylamino)-1-methyl-1H-benzoimidazole-5-carboxylic acid [2-((S)-3-dimethylamino-pyrrolidin-1-yl)-2-oxo-ethyl]-amide], which fold induction at 5 µM is on record?
**A.** 63.3

**Q.** For Cn1c(Nc2nc3ccc(OC(F)(F)F)cc3s2)nc2cc(C(=O)NCCN3CCOCC3)ccc21 [Example 43, 1-Methyl-2-(6-trifluoromethoxy-benzothiazol-2-ylamino)-1H-benzoimidazole-5-carboxylic acid (2-morpholin-4-yl-ethyl)-amide], which fold induction at 5 µM is on record?
**A.** 29.6

**Q.** Which fold induction at 5 µM does the source give for CCN(CC)c1cc2c(cc1C(=O)NCC(=O)N(C)C)nc(Nc1nc3ccc(OC(F)(F)F)cc3s1)n2C [Example 361, 6-Diethylamino-1-methyl-2-(6-trifluoromethoxy-benzothiazol-2-ylamino)-1H-benzoimidazole-5-carboxylic acid dimethylcarbamoylmethyl-amide] here?
**A.** 28.8

**Q.** How did the fold induction at 5 µM turn out when CN(C)CC(=O)N1CCC[C@@H](NC(=O)c2ccc3c(c2)nc(Nc2nc4ccc(Cl)cc4s2)n3C)C1 [Example 311, 2-(6-Chloro-benzothiazol-2-ylamino)-1-methyl-1H-benzoimidazole-5-carboxylic acid [(R)-1-(2-dimethylamino-acetyl)-piperidin-3-yl]-amide] was run?
**A.** 77.3

**Q.** For Cn1c(Nc2nc3ccc(OC(F)(F)F)cc3s2)nc2cc(S(C)(=O)=O)ccc21 [Example 201, (5-Methanesulfonyl-1-methyl-1H-benzoimidazol-2-yl)-(6-trifluoromethoxy-benzothiazol-2-yl)-amine], which fold induction at 5 µM is on record?
**A.** 26.5

**Q.** How did the fold induction at 5 µM turn out when CN(C)C(=O)[C@@H]1CCCN1C(=O)CNC(=O)c1ccc2c(c1)nc(Nc1nc3ccc(Cl)cc3s1)n2C [Example 419, 2-(6-Chloro-benzothiazol-2-ylamino)-1-methyl-1H-benzoimidazole-5-carboxylic acid [2-((S)-2-dimethylcarbamoyl-pyrrolidin-1-yl)-2-oxo-ethyl]-amide] was run?
**A.** 28

**Q.** For CC(O)CNC(=O)c1cnc2c(c1)nc(Nc1nc3ccc(OC(F)(F)F)cc3s1)n2C (stereo not shown) [Example 78, 3-Methyl-2-(6-trifluoromethoxy-benzothiazol-2-ylamino)-3H-imidazo[4,5-b]pyridine-6-carboxylic acid (2-hydroxy-propyl)-amide], which fold induction at 5 µM is on record?
**A.** 28.6

**Q.** How did the fold induction at 5 µM turn out when COCCNC(=O)c1ccc2c(c1)nc(Nc1nc3ccc(OC(F)(F)F)cc3s1)n2CCOC [Example 168, 1-(2-Methoxy-ethyl)-2-(6-trifluoromethoxy-benzothiazol-2-ylamino)-1H-benzoimidazole-5-carboxylic acid (2-methoxy-ethyl)-amide] was run?
**A.** 21.9

**Q.** CN(C(=O)CNC(=O)c1ccc2c(c1)nc(Nc1nc3ccc(Cl)cc3s1)n2C)C1CCOCC1 [Example 393, 2-(6-Chloro-benzothiazol-2-ylamino)-1-methyl-1H-benzoimidazole-5-carboxylic acid {[methyl-(tetrahydro-pyran-4-yl)-carbamoyl]-methyl}-amide] was tested. Which fold induction at 5 µM did it give?
**A.** 61.3

**Q.** Which fold induction at 5 µM does the source give for Cn1c(Nc2nc3ccc(OC(F)(F)F)cc3s2)nc2cc(C(=O)NCCOCC(C)(C)O)ccc21 [Example 245, 1-Methyl-2-(6-trifluoromethoxy-benzothiazol-2-ylamino)-1H-benzoimidazole-5-carboxylic acid [2-(2-hydroxy-2-methyl-propoxy)-ethyl]-amide] here?
**A.** 33.1

**Q.** With COC(=O)c1ccc2c(c1)nc(Nc1nc3cc(F)ccc3s1)n2C [Example 111, 2-(5-Fluoro-benzothiazol-2-ylamino)-1-methyl-1H-benzoimidazole-5-carboxylic acid methyl ester] as the compound, how does the fold induction at 5 µM read?
**A.** 17.6

**Q.** Which fold induction at 5 µM does the source give for CCNC(=O)c1cnc2c(c1)nc(Nc1nc3ccc(OC(F)(F)F)cc3s1)n2C [Example 76, 3-Methyl-2-(6-trifluoromethoxy-benzothiazol-2-ylamino)-3H-imidazo[4,5-b]pyridine-6-carboxylic acid ethylamide] here?
**A.** 22.5

**Q.** Which fold induction at 5 µM does the source give for Cn1c(Nc2nc3ccc(OC(F)(F)F)cc3s2)nc2cc(C(=O)NCC(F)(F)F)ccc21 [Example 16, 1-Methyl-2-(6-trifluoromethoxy-benzothiazol-2-ylamino)-1H-benzoimidazole-5-carboxylic acid (2,2,2-trifluoro-ethyl)-amide] here?
**A.** 30
